Laboratory results: article PMC5228037, “Discovery and Mechanistic Characterization of Selective Inhibitors of H2S-producing Enzyme: 3-Mercaptopyruvate Sulfurtransferase (3MST) Targeting Active-site Cysteine Persulfide” (Scientific Reports, 2017)

Target: T1, 3MST in cell lysate of 3MST-overexpressing HEK293 cells (Mus musculus, UniProt Q99J99)
T1 construct: expressed in transfected cells; host or cells: HEK293 (transient, 3MST/pCI)
T1 sequence (Q99J99 1-297): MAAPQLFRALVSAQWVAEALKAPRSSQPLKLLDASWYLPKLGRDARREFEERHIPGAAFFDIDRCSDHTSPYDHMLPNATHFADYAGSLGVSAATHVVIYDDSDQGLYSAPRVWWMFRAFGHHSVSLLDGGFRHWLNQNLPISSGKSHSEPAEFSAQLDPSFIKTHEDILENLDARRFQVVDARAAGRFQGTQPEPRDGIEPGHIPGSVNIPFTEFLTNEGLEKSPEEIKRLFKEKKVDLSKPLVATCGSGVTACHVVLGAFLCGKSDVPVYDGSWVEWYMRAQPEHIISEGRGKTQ
Experiment: Inhibitory activity in lysate of m3MST-overexpressing HEK293 cells by gas chromatography
Format: biochemical
Conditions: 10 μM compound, 100 μM 3MP, 100 μM DTT, 37 °C 15 min
Experimental: Figure 2 Selectivity assessment of hit compounds for 3MST over other H2S/polysulfides-producing enzymes and rhodanese. (a) 3MST-Inhibitory activity of hit compounds at 10 and 100 μM in cell lysate of 3MST-expressing HEK293 cells. 100 μM 3MP and 100 μM DTT were added to the solution containing 0.1% DMSO as a cosolvent, and the mixture was incubated at 37 °C for 15 min. H2S production was measured by gas chromatography. All data are presented as the mean ± S.D. (100 μM: n = 3 or 4; 10 μM: n = 3). (b) Selectivity assessment of hit compounds at 100 μM towards CBS and CSE. Only DMSO was added to the control sample instead of DMSO solution containing hit compounds. H2S production was monitored by gas chromatography. All data are presented as the mean (n = 3). (c) Detection method for rhodanese activity (Sörbo method). (d) Selectivity assessment of hit compounds towards rhodanese. The results are mean ± S.D. (n = 4, three times). These values were determined based upon the absorbance of [Fe(SCN)3] at 460 nm (Sӧrbo method). […] (e) Fluorescence confocal microscopic images of live COS7 cells transfected with 3MST or an empty vector[9] as a control. […] F/F0 was calculated by dividing the fluorescence intensity of cells after addition of 500 μM 3MP (10 min) by that of cells before addition of 500 μM 3MP (Pre), then the mean F/F0 was determined from 5 cells. […]

inhibition at 10 µM | SMILES
80 to 90% | NC(=O)c1ccsc1NC(=O)CSc1nc2ccccc2c(=O)[nH]1 [compound 1]
80 to 90% | Cc1cc(=O)[nH]c(SCC(=O)c2cccc3ccccc23)n1 [compound 3]
